Measured values: PMC7771553 (Journal of medicinal chemistry, 2017)
Entries after “also recorded” stand apart in the source; their conditions may differ. Like-named read-outs stand apart in the source and are kept apart here.

Tests used:
[1] = test system: MDA-MB-231 cells; assay type: in vitro ADME; conditions: for nonspecific binding, 4 °C incubation (decrease of intracellular concentration): 6 h, compared with direct solvent extraction
[2] = Stability in DMEM media with or without 10% FBS; assay type: physicochemical; conditions: 72 h, negligible difference between samples with and without serum
[3] = Cell-absent control: nonspecific binding with the cell culture plate; assay type: in vitro ADME; conditions: input 10, 20, 2, 20 μM for 1–4
[4] = test system: MDA-MB-231 cells; conditions: for dose dependence of the cellular uptake: 10% FBS (1 and 2) or 5% FBS (3 and 4); for intracellular concentration relative to the input concentration: 24 h, volume of one million cells about 5.5 μL; for incubation time to maximum intracellular concentration: MDA-MB-231 cells; for intracellular moles relative to that of 4: 5% FBS
[5] = test system: MDA-MB-231 cells; conditions: MDA-MB-231, 24 h; input 10, 20, 2, 20 μM for 1–4
[6] = test system: bromodomains; conditions: cited from earlier work
[7] = Parallel artificial membrane permeability assay; assay type: in vitro ADME; conditions: PAMPA

Row | Compound | nonspecific binding to the plates, percent of input concentration [3] [%] | nonspecific binding, 4 °C incubation (decrease of intracellular concentration) [1] [%] | dose dependence of the cellular uptake ([4]; 6 h) | intracellular concentration relative to the input concentration ([4]; input 10, 20, 2, 20 μM for 1–4) | incubation time to maximum intracellular concentration [4] [h] | inhibitory activities in cell-based NanoBRET assays [6] | other results
1 | CCOC(=O)CCCn1c2ccccc2c2nc3nonc3nc21 [Compound 8] | – | – | – | – | – | – | cell-bound inhibitors at 4 °C [1]: little or no nonspecific binding
2 | Cl.Cl.O=C(c1cc(F)cc(N2CCNCC2)c1)N1CCN(C(=O)c2ccc(O[C@H]3CCNC3)c(C3CCCCC3)c2)CC1 [Compound 4] | 1 | 4 | plateaued when the input concentration was increased from 20 to 200 μM; also recorded: saturated at input concentrations >20 μM | ~65 times | 3 to 6 | – | compound remaining (percent of the initial concentration) [2]: about 85%; rate of decrease of intracellular moles ([4]; input 20 μM, over 72 h, first order): about 85.5 ± 8.2 pmol/(million cells × h); time dependence of intracellular moles (metabolic stability in cells) ([4]; over 72 h, input 10, 20, 2, 20 μM for 1–4): less stable
3 | Cc1cc2c(cc1N1C(=O)c3cccc4c(CCCO)ccc(c34)C1=O)n(C)c(=O)n2C [Compound 2, BAY-299, reference compound] | – | – | first order | – | – | submicromolar | increase in inhibitor cellular uptake ([4]; 10-time increase in the input concentration (20–200 μM), 6 h): 13 times; cellular uptake (percent of the compound accumulated in the cells) [5]: < 1%
4 | CC(=O)c1cc(-c2cc(C(=O)NC3CC3)ccc2C)c2ncccn12 [Compound 1, TP-472, reference compound] | 1 | 77 | first order | – | – | submicromolar | permeability through the artificial membrane [7]: good permeability
5 | Cl.Cl.O=C(Nc1ccc(O[C@H]2CCNC2)c(-c2ccc(F)cc2)c1)c1ccc(O[C@H]2CCNC2)c(-c2ccc(F)c(F)c2)c1 [Compound 3] | – | 15 | logarithmic pattern (saturation kinetics) | about 600 times | 3 to 6 | – | cell permeability relative to 4 ([4]; equal input concentrations compared (Figure 6)): 1.7 times; intracellular moles relative to that of 4 ([4]; input concentration 2 μM, 6 h): 1.9 times; intracellular moles relative to that of 4 ([4]; input concentration 20 μM, 6 h): 1.5 times
